This assay concerns male rats with cytopenia. Nature of the assay: Hemostimulating activity: general analysis of the blood of male rats with cyclophosphan cytopenia. The class given is in vivo.
Where [1] appears, read: 3 days after cyclophosphan 120 mg/kg.
Setting [2] is: 7 days after cyclophosphan 120 mg/kg.
[3] abbreviates: 14 days after cyclophosphan 120 mg/kg.

2 compounds from patent publication US20130289108A1, “Palladium-Copper Catalysts for the Homogeneous Selective Oxidation of Thiol Groups” (priority 2011, published 2013) can be followed below.

Molecules are shown by their SMILES. Marks after values point to notes of the source that are not given here.

Regarding `CC(=O)N[C@@H](CSSC[C@H](NC(C)=O)C(=O)O)C(=O)O` [preparation 4, N-acetyl-L-cysteine disulfide], under setting [1], the Erythrocytes is listed as 3.2 ± 0.33 10^12/l, the Leucocytes is recorded as 3.47 ± 0.08* 10^9/l, the Lymphocytes was 52.5 ± 1.3 % and the Segmented neutrophils is reported as 31 ± 1.8 %. Under setting [2], the Erythrocytes is listed as 3.2 ± 0.33 10^12/l, the Leucocytes was 3.47 ± 0.08* 10^9/l, the Lymphocytes is 52.5 ± 1.3 % and the Segmented neutrophils worked out at 31 ± 1.8 %. For the same compound, under setting [3], the Erythrocytes is listed as 4.1 ± 0.21 10^12/l, the Leucocytes is on record as 5.1 ± 0.22** 10^9/l, the Lymphocytes stood at 71.0 ± 1.6% and the Reticulocytes stood at 1.2 ± 0.4%. Under setting [3], the Segmented neutrophils was found to be 13.6 ± 1.9 %.

As to `O=C([O-])[O-].[Li+].[Li+]` [preparation 3, lithium carbonate], under setting [1], the Erythrocytes is 3.4 ± 0.29 10^12/l, the Leucocytes was 3.22 ± 0.11* 10^9/l, the Lymphocytes turned out to be 49.7 ± 1.6 % and the Reticulocytes amounted to 1.1 ± 0.1%. Under setting [1], this compound showed a Segmented neutrophils of 31 ± 1.7 %. Also, under setting [2], the Erythrocytes is 3.4 ± 0.29 10^12/l, the Leucocytes was 3.22 ± 0.11* 10^9/l, the Lymphocytes is recorded as 49.7 ± 1.6 % and the Reticulocytes amounted to 1.1 ± 0.1%. Under setting [2], this compound showed a Segmented neutrophils of 31 ± 1.7 %. Under setting [3], the Erythrocytes is 4.7 ± 0.27 10^12/l, the Leucocytes is 5.2 ± 0.26** 10^9/l, the Lymphocytes is given as 70.3 ± 0.9% and the Reticulocytes came to 1.3 ± 0.3%. For the same compound, the Segmented neutrophils under setting [3] came out at 15.0 ± 2.6 %.
